# Experimental data from patent US20250152559A1, “METHODS FOR TREATING MYC-AMPLIFIED CANCER” (The Governing Council of the University of Toronto, priority 2023, published 2025).
# Where “and” joins values, the source holds several entries; their conditions need not be identical. Equal values may be shown once.
# Assays:
# [1] = system: O-GlcNAc-conjugated proteins and c-Myc in HD-MB03 and SU_MB002 tumor cells; assay: Western blotting of O-GlcNAc-linked proteins and c-Myc; format: cell-based, human; settings: HD-MB03 and SU_MB002, BAY vs vehicle
# Source text: Uridine metabolite depletion may impact not only the macromolecular demands of the rapidly cycling cellular phenotype identified through scRNA-seq analysis (inducing cell cycle arrest), but also the potentiation of oncogenic signaling programs. […] To determine whether reduced UDP-GlcNAc abundance influences O-GlcNAcylation of proteins and/or expression of c-Myc at the protein level, the abundance of β-O-glycosidic-linked proteins (Ser and Thr residues) and the expression of c-Myc protein in HD-MB03 and SU_MB002 tumor cells treated with BAY or its vehicle, were measured using Western blotting.
# Protein lysates were isolated from approximately 500,000-1,000,000 cells. Pellets were rinsed with PBS and then lysed in RIPA buffer containing HALT™ protease inhibitor cocktail (ThermoFisher). Protein concentrations were quantified using the Bradford Assay (BioRad). Protein size was resolved via SDS-PAGE and then transferred to PVDF for immunoblotting. […] Quantification was performed by analyzing mean pixel density of each band and then normalizing to GAPDH loading control. […]
# [2] = system: de novo pyrimidine biosynthesis in brain tissue; assay: LC-MS metabolome profiling of brain tissues of treated mice; format: in vivo; settings: individual samples, listed as BAY
# Procedure: In parallel to these experiments, subcutaneous flank xenografts were engrafted into two cohorts of mice, which were treated with the vehicle or R2. […] To investigate the pharmacokinetics of BAY in vivo, its concentration in plasma and brain tissues of healthy mice was directly quantified using an LC-MS approach. BAY was detected in both brains and plasma of mice undergoing treatment, however the plasma concentrations exceeded those of the brain by approximately 10-fold (FIG. 5H-I). To determine whether treatment with BAY affects de novo pyrimidine biosynthesis in vivo, changes in pyrimidine metabolism were measured in the brain in comparison to tumor tissues from the flank (FIG. 5J-K). Although BAY treatment impacted de novo pyrimidine metabolism in vivo in both brain and tumor tissues, with a similar pattern observed in vitro (FIG. 4A), the effect size was stronger in peripheral tumor tissue in comparison to brain tissue. Such findings further reflect the limited capacity for BAY to accumulate within the brain.
# For metabolome profiling of tissues, ˜5 mg tissue were homogenized in 225 μL of −20° C. cold, methanol using a Bullet Blender Tissue Homogenizer (NextAdvance, Inc.) Bullet for 3 min. The homogenate was vortexed for 20 s and 750 μL of −20° C. cold methyl tertiary-butyl ether (MTBE) was added, and the mixture was vortexed for 10 s and shaken at 4° C. for 5 min. Next, 188 μL room temperature water was added and vortexed for 20 s to induce phase separation. After centrifugation for 5 min at 14,000×g, the bottom polar phase was collected and dried down. Metabolite extracts were reconstituted in LC-MS grade water/acetonitrile (50:50; v:v), vortexed for 1 min, sonicated for 15 min, and centrifuged at 16,000×g and 4° C. for 15 min to remove insoluble debris.
# The LC-MS metabolomics and lipidomics analyses of the 3 NSC and 3 MB cell lines and tissues were performed on a UPLC-MS system consisting of an Orbitrap IQ-X Tribrid coupled to a Horizon Vanquish UPLC system (Thermo Fisher Scientific). The lipidomics analysis was conducted in positive-ion mode with a spray voltage of 3.5 kV while the metabolomics analysis was conducted in negative-ion mode with a spray voltage of −2.5 kV. The following source conditions were identical in both analyses and were set as follows: Sheath gas flow rate, 50 arbitrary units; Aux. gas flow rate, 10 arbitrary units; Sweep gas flow rate, 1 arbitrary unit; Ion transfer tube temp., 300° C.; Vaporizer temp., 350° C. The following acquisition parameters were used for MS1 analysis in both methods: resolution, 120,000, AGC target, 4e5. The maximum IT was set at […] for the lipidomics analysis and 200 ms for the metabolomics analysis. Data-dependent MS/MS parameters for the lipidomics analyses: resolution, 30,000; AGC target, 7.5e4; maximum IT, Dynamic (54 ms); time between Master Scans, 0.6 s; isolation window, 1.0 m/z; NCE/stepped nce, 20, 30, 40; intensity threshold, 5e4; exclude isotopes, on; dynamic exclusion, 3.0 s. Data-dependent MS/MS parameters for the metabolomics analyses: resolution. 15,000; AGC target, 7.5e4; maximum IT, Dynamic (22 ms); time between Master Scans, 0.6 s; isolation window, 1.0 m/z; NCE/stepped nce, 20, 30, 40, 50; intensity threshold, 5e4; exclude isotopes, on; dynamic exclusion, 5.0 s. To increase the total number of MS/MS spectra in the lipidomics analysis, five runs with iterative MS/MS exclusions were performed using the AcquireX function in Xcalibur (Thermo Fisher Scientific). In the metabolomics analysis, three runs with iterative MS/MS exclusions were performed using the AcquireX function. For the lipidomics analysis, chromatographic separation was achieved using a Waters Acquity UPLC CSH C18 (100 mm×2.1 mm i.d.; 1.7 μm) column injecting 2 μL. […] The column was equilibrated for 2 min at 15% B. The flow rate was set to 250 μL/min. The column temperature was maintained at 65° C. […]
# [3] = Mouse body weight / tolerability during treatment regimens; format: in vivo
# Procedure: The treatment-naïve, patient-derived cell line, HD-MB03, was orthotopically engrafted into immunocompromised mice. Four days later, tumors were readily detectible via bioluminescence imaging. Thereafter mice were randomized into three cohorts, which were treated with either the vehicle or one of two BAY treatment regimens (R1 and R2; FIG. 5B).
# [4] = brain tissue of BAY-treated mice
structure (smiles),measurement,setting,value
CCn1c(CO)nn(-c2cc(O[C@@H](C)C(F)(F)F)c(C(=O)Nc3c(F)cccc3Cl)cc2F)c1=O [BAY2402234],abundance of O-GlcNAc-conjugated proteins,[1],global reduction
same,c-Myc protein expression,[1],significant reduction
same,Glutamine normalized peak intensity (Area),[2]; [4],280983232 and 324326048 and 229454432 and 206007952
same,N-Carbamoyl aspartic acid normalized peak intensity (Area),[2]; [4],1700352 and 1616900 and 1920988 and 2261730
same,Orotic acid normalized peak intensity (Area),[2]; [4],3366687 and 6999989 and 4291824 and 3862066
same,UDP-GluNAc normalized peak intensity (Area),[2]; [4],16715786 and 8363980 and 11501715 and 11534621
same,UTP normalized peak intensity (Area),[2]; [4],22962 and 19870 and 12207 and 19991
same,Uridine 5′-diphosphate (UDP) normalized peak intensity (Area),[2]; [4],133672 and 97588 and 69682 and 73337
same,Uridine 5′-monophosphate normalized peak intensity (Area),[2]; [4],23218120 and 13372546 and 15616277 and 19018060
same,Uridine normalized peak intensity (Area),[2]; [4],41449420 and 113184456 and 51214976 and 33664876
same,dihydroorotic acid normalized peak intensity (Area),[2]; [4],1975829 and 3553594 and 1415838 and 2677330
same,BAY-2402234 normalized peak intensity (Area),[2],1338708 and 4796862 and 1717137 and 2579631
same,tolerability over the entire treatment period,[3]; 5 mg/kg,well-tolerated
same,body weight,"[3]; R2, after the 10 mg/kg doses","marginal, temporary weight loss"
